# Experimental data as given in ChEMBL document CHEMBL6114992, “Design, synthesis, biological evaluation, and mechanism of action of new pyrazines as anticancer agents in vitro and in vivo” (Bioorg Med Chem, 2025).
# Tests used:
# Type in all cases: functional, cell-based
# [1] = test system: SK-OV-3; test: Antiproliferative activity against human SK-OV-3 cells assessed as inhibition of cell growth incubated for 72 hrs by MTT assay; conditions: SK-OV-3, 72 h
# [2] = Antiproliferative activity against human SK-OV-3/Taxol cells assessed as inhibition of cell growth incubated for 72 hrs by MTT assay; conditions: SK-OV-3, 72 h
# [3] = test system: U-937; test: Antiproliferative activity against human U-937 cells assessed as inhibition of cell growth incubated for 72 hrs by MTT assay; conditions: U-937, 72 h
# [4] = test system: THP-1; test: Antiproliferative activity against human THP-1 cells assessed as inhibition of cell growth incubated for 72 hrs by MTT assay; conditions: THP-1, 72 h
# [5] = test system: KG-1; test: Antiproliferative activity against human KG-1 cells assessed as inhibition of cell growth incubated for 72 hrs by MTT assay; conditions: KG-1, 72 h
Structure (SMILES),IC50 [1] [µM],IC50 [2] [µM],IC50 [3] [µM],IC50 [4] [µM],IC50 [5] [µM]
CCN(CC)c1ccc(/C=C/C(=O)c2cnccn2)cc1,> 50,> 50,> 50,> 50,> 50
O=C(/C=C/c1cccc(Cl)c1Cl)c1cnccn1,> 50,> 50,19,12.2,54.8
O=C(/C=C/c1ccc(Br)cc1)c1cnccn1,> 50,> 50,> 50,23.7,20.4
CCc1nccnc1C(=O)/C=C/c1ccc2c(c1)OC(F)(F)O2,3.74,3.72,5.48,5.36,9.09
Cc1nccnc1C(=O)/C=C/c1ccc(Cl)cc1,9.75,11.8,2.96,17,10.4
Cc1ccccc1/C=C/C(=O)c1nccnc1C,2.59,3.8,2.55,4.97,13
Cc1nccnc1C(=O)/C=C/c1ccccn1,10,11.1,6.55,6.22,5.39
CCc1nccnc1C(=O)/C=C/c1ccc(F)cc1F,5.24,7.97,8.02,5.71,25.7
CCc1nccnc1C(=O)/C=C/c1cc2ccccc2o1,17.3,16.4,17.4,12.9,22.5
O=C(/C=C/c1cccc(Cl)c1)c1cnccn1,10.9,10.6,11.5,10.3,9.97
CCc1nccnc1C(=O)/C=C/c1cccc(Cl)c1,4.69,5.11,1.23,5.95,3.66
CC(/C=C/C(=O)c1nccnc1C)=C\c1ccccc1,7.3,6.45,2.13,4.53,4.78
Cc1nccnc1C(=O)/C=C/c1ccc(C(F)(F)F)cc1,7.57,8.99,3.23,5.23,5.66
Cc1nccnc1C(=O)/C=C/c1cc2ccccc2o1,4.63,1.74,2.93,1.9,3.3
O=C(/C=C/c1ccc(Cl)cc1)c1cnccn1,9.91,10.4,11.5,10.2,12.3
Cc1ccccc1/C=C/C(=O)c1cnccn1,31.2,33.7,23.6,15.7,15.2
Cc1cccc(/C=C/C(=O)c2cnccn2)c1,28.5,25.9,16.3,20.3,9.84
O=C(/C=C/c1ccccc1Br)c1cnccn1,12.1,14.1,11.6,15.5,8.94
CCc1nccnc1C(=O)/C=C/c1ccccc1F,3.42,3.67,2.23,3.52,3.07
O=C(/C=C/c1ccc(Cl)cc1Cl)c1cnccn1,> 50,> 50,8.31,6.54,6.57
O=C(/C=C/c1ccc(C(F)(F)F)cc1)c1cnccn1,9.72,10.4,11.9,8.3,7.87
CCc1nccnc1C(=O)/C=C/c1ccc(SC)cc1,7.94,8.12,4.29,2.67,9.34
CCc1nccnc1C(=O)/C=C/c1ccc(Cl)cc1Cl,6.99,6.81,9.99,8.28,5.99
Cc1nccnc1C(=O)/C=C/c1ccccc1F,10.2,10.7,22.6,5.5,5.38
CCc1nccnc1C(=O)/C=C/c1ccc(F)cc1,3.11,3.5,2.38,7.23,3.57
CCc1nccnc1C(=O)/C=C/c1ccc(C(F)(F)F)cc1,5.92,7.29,5.78,3.04,9.21
CCc1nccnc1C(=O)/C=C/c1ccc(C(C)(C)C)cc1,11.2,12.2,15,10.2,22.5
Cc1nccnc1C(=O)/C=C/c1ccccc1Br,3.22,2.72,1.23,1.95,2.75
CCc1nccnc1C(=O)/C=C/C=C/c1ccc(F)cc1,7.98,8.25,5.25,7.16,6.91
